Structures can show the parent of a compound that is named as a salt.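 Each compound was tested at five concentrations against cells in 96-well plates for 48 hours. GI50 = concentration required for 50% inhibition of growth.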 Activity calls are given as the source filed them. Rule as the data show it: active = GI50 up to about 1.1 µM and inactive = higher.
Experiments:
Assay in all cases: NCI tumour cell line growth inhibition, 48 h
CAKI-1 = system: CAKI-1
MDA-N = system: MDA-N
SR = system: SR
NCI-H460 = system: NCI-H460
MOLT-4 = system: MOLT-4
Hs-578T = system: Hs-578T
OVCAR-4 = system: OVCAR-4
A498 = system: A498
UACC-62 = system: UACC-62
SF-539 = system: SF-539
HCC 2998 = system: HCC 2998
TK-10 = system: TK-10
UACC-257 = system: UACC-257
ACHN = system: ACHN
MDA-MB-231 = system: MDA-MB-231
HCT-116 = system: HCT-116
SF-268 = system: SF-268
OVCAR-5 = system: OVCAR-5
NCI-H226 = system: NCI-H226
SK-OV-3 = system: SK-OV-3

Measured: GI50

COc1c2ccoc2cc2oc(=O)ccc12 [BERGAPTEN]
inactive: CAKI-1 > 100 µM | MDA-N > 100 µM | SR > 100 µM | NCI-H460 > 100 µM | MOLT-4 > 100 µM | Hs-578T 65.5 µM | OVCAR-4 > 100 µM | A498 > 100 µM | UACC-62 > 100 µM | SF-539 > 100 µM | HCC 2998 > 100 µM | TK-10 > 100 µM | UACC-257 > 100 µM | ACHN > 100 µM | MDA-MB-231 > 100 µM | HCT-116 > 100 µM | SF-268 > 100 µM | OVCAR-5 > 100 µM | NCI-H226 > 100 µM

COC(=O)C(CCSc1ccccc1)C(=O)OC
inactive: CAKI-1 > 100 µM | SK-OV-3 > 100 µM | MDA-N > 100 µM | SR > 100 µM | NCI-H460 > 100 µM | MOLT-4 > 100 µM | Hs-578T 1.58 µM | OVCAR-4 > 100 µM | A498 > 100 µM | UACC-62 > 100 µM | SF-539 > 100 µM | HCC 2998 > 100 µM | UACC-257 > 100 µM | ACHN > 100 µM | MDA-MB-231 > 100 µM | HCT-116 > 100 µM | OVCAR-5 > 100 µM | NCI-H226 > 100 µM

O=c1cc(NNCc2ccccc2)[nH]c(=O)[nH]1
inactive: CAKI-1 > 100 µM | MDA-N > 100 µM | SR > 100 µM | NCI-H460 > 100 µM | MOLT-4 69.2 µM | Hs-578T 58.1 µM | OVCAR-4 > 100 µM | A498 > 100 µM | SF-539 > 100 µM | HCC 2998 > 100 µM | TK-10 > 100 µM | UACC-257 > 100 µM | ACHN > 100 µM | MDA-MB-231 > 100 µM | HCT-116 > 10 µM | SF-268 > 100 µM | OVCAR-5 > 100 µM | NCI-H226 > 100 µM

COc1cc(-c2ccccc2N)c2cccnc2c1OC
inactive: CAKI-1 2.63 µM | SK-OV-3 9.57 µM | MDA-N 6.47 µM | SR 1.67 µM | NCI-H460 11.1 µM | MOLT-4 1.44 µM | Hs-578T 3.05 µM | OVCAR-4 6.3 µM | A498 14.1 µM | UACC-62 11.7 µM | SF-539 6.41 µM | TK-10 10.1 µM | UACC-257 10.1 µM | ACHN 3.71 µM | MDA-MB-231 6.22 µM | HCT-116 1.36 µM | SF-268 3.1 µM | NCI-H226 11.6 µM

NCCSSCCN [CYSTAMINE HYDROCHLORIDE]
inactive: CAKI-1 > 100 µM | SK-OV-3 > 100 µM | MDA-N > 100 µM | SR > 100 µM | NCI-H460 > 100 µM | MOLT-4 > 100 µM | Hs-578T > 100 µM | OVCAR-4 > 100 µM | A498 > 100 µM | UACC-62 > 100 µM | SF-539 > 100 µM | HCC 2998 > 100 µM | TK-10 > 100 µM | ACHN > 100 µM | MDA-MB-231 > 100 µM | HCT-116 > 100 µM | SF-268 > 100 µM | OVCAR-5 > 100 µM | NCI-H226 > 100 µM

O=c1oc2ccccc2c(-c2ccc(O)cc2)c1Oc1ccc(Cl)cc1
inactive: CAKI-1 28.8 µM | MDA-N 19.5 µM | SR 18.2 µM | NCI-H460 20.4 µM | Hs-578T 16.1 µM | OVCAR-4 38.4 µM | A498 26.6 µM | UACC-62 19.9 µM | SF-539 30.4 µM | HCC 2998 16.9 µM | TK-10 20.7 µM | UACC-257 28.2 µM | ACHN 25.8 µM | MDA-MB-231 22.4 µM | HCT-116 15.8 µM | SF-268 23.6 µM | OVCAR-5 31.8 µM | NCI-H226 20.5 µM

O=c1ccn([C@@H]2C[C@H]2CO)c(=O)[nH]1
inactive: CAKI-1 > 100 µM | MDA-N > 100 µM | SR > 100 µM | NCI-H460 > 100 µM | MOLT-4 > 100 µM | Hs-578T > 100 µM | OVCAR-4 > 100 µM | A498 > 100 µM | UACC-62 > 100 µM | SF-539 > 100 µM | HCC 2998 > 100 µM | TK-10 > 100 µM | UACC-257 > 100 µM | ACHN > 100 µM | MDA-MB-231 > 100 µM | HCT-116 > 100 µM | SF-268 > 100 µM | OVCAR-5 > 100 µM | NCI-H226 > 100 µM

COc1cc2oc(-c3ccc(O)cc3)cc(=O)c2c(OC)c1OC
inactive: CAKI-1 > 100 µM | MDA-N > 100 µM | SR > 100 µM | NCI-H460 > 100 µM | MOLT-4 > 100 µM | Hs-578T > 100 µM | OVCAR-4 > 100 µM | A498 > 100 µM | UACC-62 > 100 µM | SF-539 > 100 µM | HCC 2998 > 100 µM | TK-10 > 100 µM | UACC-257 > 100 µM | ACHN > 100 µM | MDA-MB-231 > 100 µM | HCT-116 > 100 µM | SF-268 > 100 µM | OVCAR-5 > 100 µM | NCI-H226 > 100 µM

c1ccc(NNC2=NCCN2)cc1
inactive: CAKI-1 > 100 µM | SK-OV-3 > 100 µM | MDA-N > 100 µM | SR > 100 µM | NCI-H460 > 100 µM | MOLT-4 > 100 µM | Hs-578T > 100 µM | OVCAR-4 > 100 µM | A498 > 100 µM | UACC-62 > 100 µM | SF-539 > 100 µM | TK-10 > 100 µM | UACC-257 > 100 µM | ACHN > 100 µM | MDA-MB-231 > 100 µM | HCT-116 > 100 µM | SF-268 > 100 µM | OVCAR-5 > 100 µM | NCI-H226 > 100 µM

CC1(C)C2C=CC1(C)C1(CC2)OCCO1 (centres undefined)
inactive: SK-OV-3 > 100 µM | MDA-N > 100 µM | SR > 100 µM | NCI-H460 > 100 µM | MOLT-4 > 100 µM | Hs-578T > 100 µM | OVCAR-4 > 100 µM | A498 > 100 µM | UACC-62 > 100 µM | SF-539 > 100 µM | HCC 2998 > 100 µM | TK-10 > 100 µM | UACC-257 > 100 µM | ACHN > 100 µM | MDA-MB-231 > 100 µM | HCT-116 > 100 µM | SF-268 > 100 µM | OVCAR-5 > 100 µM | NCI-H226 > 100 µM

O=Cc1ccc(OCc2cccc(COc3ccc(/C=N\Nc4ccc([N+](=O)[O-])cc4[N+](=O)[O-])cc3)n2)cc1
inactive: CAKI-1 > 100 µM | MDA-N > 100 µM | SR 22.1 µM | NCI-H460 > 100 µM | MOLT-4 33.9 µM | Hs-578T > 100 µM | OVCAR-4 > 100 µM | A498 > 100 µM | UACC-62 > 100 µM | HCC 2998 > 100 µM | TK-10 > 100 µM | UACC-257 > 100 µM | ACHN > 100 µM | MDA-MB-231 43.6 µM | HCT-116 > 100 µM | SF-268 > 100 µM | OVCAR-5 > 100 µM | NCI-H226 > 100 µM

C#CCCOC(=O)c1ccccc1OC(C)=O
inactive: CAKI-1 > 100 µM | SK-OV-3 > 100 µM | MDA-N > 100 µM | SR > 100 µM | NCI-H460 > 100 µM | MOLT-4 > 100 µM | Hs-578T > 100 µM | OVCAR-4 > 100 µM | A498 > 100 µM | UACC-62 > 100 µM | SF-539 > 100 µM | TK-10 > 100 µM | UACC-257 > 100 µM | ACHN > 100 µM | MDA-MB-231 > 100 µM | HCT-116 > 100 µM | SF-268 > 100 µM | OVCAR-5 > 100 µM | NCI-H226 > 100 µM

CCn1c2ccccc2c2ccc(C3C4C(=O)N(c5cccc6ccccc56)C(=O)C4ON3C(C(N)=O)c3ccccc3)cc21 (centres undefined)
inactive: CAKI-1 4.66 µM | SK-OV-3 > 25 µM | MDA-N 9.1 µM | SR 9.12 µM | NCI-H460 12.9 µM | MOLT-4 7.53 µM | Hs-578T > 25 µM | OVCAR-4 14.6 µM | A498 2.63 µM | UACC-62 9.04 µM | SF-539 7.59 µM | TK-10 7.16 µM | UACC-257 7.73 µM | ACHN > 25 µM | MDA-MB-231 > 25 µM | HCT-116 13 µM | SF-268 > 25 µM | OVCAR-5 15.1 µM | NCI-H226 2.76 µM

CC[C@]12C=CCN3CC[C@@]4(c5cc(Br)c(OC)cc5N(C)[C@H]4[C@@](O)(C(=O)N[C@@H](Cc4ccc(O)cc4)C(=O)OC)[C@@H]1O)[C@@H]32
inactive: CAKI-1 18.7 µM | SK-OV-3 74.5 µM | MDA-N 20 µM | SR 13.8 µM | NCI-H460 18.2 µM | MOLT-4 14.2 µM | Hs-578T 20.7 µM | OVCAR-4 14.7 µM | A498 18.1 µM | UACC-62 17.6 µM | SF-539 19.7 µM | HCC 2998 25.5 µM | TK-10 22.6 µM | UACC-257 16.3 µM | ACHN 27.6 µM | MDA-MB-231 11 µM | HCT-116 34.8 µM | SF-268 13.6 µM | OVCAR-5 45.5 µM

Nc1nccc(NCC2(CO)CC(OCc3ccccc3)C2)n1 (centres undefined)
inactive: CAKI-1 > 100 µM | MDA-N > 100 µM | SR > 100 µM | NCI-H460 > 100 µM | MOLT-4 > 100 µM | Hs-578T > 100 µM | OVCAR-4 48.3 µM | A498 > 100 µM | UACC-62 > 100 µM | SF-539 > 100 µM | HCC 2998 > 100 µM | UACC-257 > 100 µM | ACHN > 100 µM | MDA-MB-231 > 100 µM | HCT-116 90.4 µM | SF-268 > 10 µM | OVCAR-5 > 100 µM | NCI-H226 > 100 µM

Reference: ChEMBL document CHEMBL1201862, “PubChem BioAssay data set” (2004)
